Source: US20060008891A1, “Cathepsin G-related peptides as modulators of formylpeptide receptors (FPR)” (The Government of USA as repersented by the Secretary, …, priority 2004, published 2006)
Several values for one entry are separate records, joined by “and”; a condition that tells them apart may be missing. Identical values can stand only once.

Tests used:
FPR = target: T1, FPR (Homo sapiens, UniProt P21462); experiment: 3[H]-fMLF binding competition on monocytes and ETFR cells; details: 3 nM 3[H]-fMLF
T1 construct: expressed in transfected cells; host or cells: Rat basophilic leukemia (RBL) cells, stably transfected (ETFR cells); gift of H. Ali and R. Snyderman, Duke University
T1 sequence (P21462 1-350): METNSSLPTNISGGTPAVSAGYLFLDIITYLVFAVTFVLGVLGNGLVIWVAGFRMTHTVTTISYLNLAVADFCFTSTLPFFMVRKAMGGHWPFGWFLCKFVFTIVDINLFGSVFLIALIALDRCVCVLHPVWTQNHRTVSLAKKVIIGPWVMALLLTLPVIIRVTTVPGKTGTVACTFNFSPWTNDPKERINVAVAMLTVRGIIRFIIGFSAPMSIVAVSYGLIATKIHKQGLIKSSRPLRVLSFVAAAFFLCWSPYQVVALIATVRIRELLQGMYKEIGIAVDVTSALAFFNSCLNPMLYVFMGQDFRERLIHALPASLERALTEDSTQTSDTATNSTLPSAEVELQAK
From the text: The cells were then filtered onto Whatman paper discs, which were air-dried and measured for […].

PKCα/β = PKCα/β translocation in ETFR cells; format: cell-based, rat; details: 100 nM fMLF, 10 μg/ml CaG or PMA 500 nM, 37° C. 10 min
Description: ETFR cells were seeded on coverslips and cultured overnight in DMEM containing 1% FCS at 37° C. After further culture in FCS-free DMEM for 3 h, cells were treated with stimulants for indicated time periods at 37° C. and were then fixed in 4% paraformaldehyde for 5 min at room temperature. The cells were permeabilized with 0.2% Tween 20 for 30 min at 4° C. and the reaction was blocked with 5% goat normal serum for 15 min at room temperature. The rabbit anti-PKCα/β, δ, and ξ, antibodies (1:1000 in DPBS) were applied separately for 1 h at room temperature. After three rinses with DPBS, the cells were stained with FITC-labeled goat anti-rabbit secondary antibody (PharMingen, 1:1000 in DPBS) for 1 h at room temperature. The coverslips were mounted with an anti-fade, water-based mounting medium with Propidium Iodide (PI) (Vector Lab, Burlingamem, Calif.) and analyzed under a laser scanning confocal fluorescence microscope (Zeiss LSM510 NLO Meta, Jena, Germany). Excitation wavelengths 488 (for FITC) and 568 (for PI) nm were used to generate fluorescence emission in green and red, respectively.

ERK1/2 = experiment: Phosphorylation of ERK1/2 in parental RBL cells; format: cell-based, rat
monocytes = experiment: Chemotaxis assay, monocytes; format: cell-based, human
Description: Human PBMC were isolated from leukopacks obtained through the courtesy of Transfusion Medicine Department, National Institutes of Health Clinical Center (Bethesda, Md.) by Ficoll-Hypaque density gradient centrifugation. Monocytes were purified from human PBMC by Percoll gradient to yield>90% pure preparations. […] H. Ali and R. Snyderman, Duke University (Durham, N.C.) and maintained in the presence of 0.8 mg/ml geneticin (G418, Life Technologies, Rockville, Md.) in DMEM supplemented with 10% FCS. B. Chemotaxis assay Migration of phagocytes and ETFR cells was assessed using a 48-well microchemotaxis chamber (Neuroprobe, Cabin John, Md.) as previously described (Hu et al. (2001) J Leukoc Biol 70 15512). Briefly, different concentrations of stimulants were placed in the wells of the lower compartment of the chamber, and 50 μl cells (1.5×10^6 cells/ml for monocyte and neutrophil, 1×10^6 ETFR cells/ml) were added to the wells of the upper compartment. The lower and upper compartments were separated by either a 5-μm (for monocyte) or a 10-μm pore size, collagen-coated (for ETFR cells) polycarbonate filter (Osmonics, Livermore, Calif.). After incubation at 37° C. in humidified air with 5% CO2 (60 min for neutrophils, 90 min for monocytes, 4.5 h for ETFR cells), the filter was removed and stained, and the cells migrating across the filter were counted with light microscopy. The results are presented as the mean number of cells (±SD) in three high power fields (HPFs). […] After thorough washing with cold medium (RPMI 1640, 1% BSA), the cells were resuspended and assayed. To measure the effect of various signaling inhibitors, unless otherwise indicated, the cells were pre-incubated at 37° C. for 60 min with the inhibitors, and were then added to the upper wells of the chemotaxis chamber.

Akt = experiment: Phosphorylation of Akt in ETFR cells (Western blot); format: cell-based, rat
Description: ETFR cells were plated in Petri dishes and cultured in DMEM at 37° C. in humidified 5% CO2 atmosphere for 48 h. After further culture in serum-free DMEM overnight, the cells were treated with stimulants for indicated time periods. The reaction was stopped by adding 1 ml ice-cold PBS, and the cells were lysed in 1×SDS lysis buffer (62.5 mM Tris-HCl, 2% w/v SDS, 10% glycerol, 50 mM DTT, pH 6.8) and harvested into tubes for sonication. Proteins (50 μg for each sample) were resolved by SDS-PAGE and transferred onto nitrocellulose membranes (Bio-Rad, Hercules, Calif.). The membranes were blocked for 2 h at room temperature in 3% non-fat milk prepared in Tris-buffered saline-T (10 mM Tris-HCl, pH 7.5, 150 mM NaCl, 0.1% Tween 20) and probed with anti-p-ERK1/2, p-p38 MAPK, or p-Akt (1:1000) at room temperature for 1-2 h or at 4° C. overnight. The membranes were then washed and incubated with horseradish peroxidase-conjugated secondary antibodies diluted in Tris-buffered saline-T for 1 h at room temperature. The immune complexes on the membranes were visualized using ECL reagents. Total ERK1/2, p38 MAPK, and Akt were visualized by stripping the same membrane and probing with antibodies against total ERK1/2, p38 MAPK, and Akt.

In the case of “CaG: Cathepsin G, serine protease purified from neutrophil granules, purchased from Athens Research & Technology”, the “IC50, displacement of 3[H]-fMLF binding” value (FPR) is reported as 2.5 mg/L, the “translocation of PKCα/β” value (PKCα/β) is reported as “did not induce translocation of PKCα and β” and the “phosphorylation of ERK1/2 in parental RBL cells” value (ERK1/2) is reported as “did not show any increased phosphorylation of ERK1/2”. The “concentration of maximal activity in monocyte migration” value (monocytes; human monocytes) was 5 μg/ml and 200 nM, the “monocyte migration induced by stimulant” value (monocytes; human monocytes) was “dose-dependently induced monocyte migration” and the “concentration range potently chemotactic” value (monocytes; monocytes) was 4 to 400 nM. For the same substance, the “attenuation of monocyte chemotaxis to fMLF after preincubation” value (monocytes; preincubated with CaG 10 μg/ml 30 min 37° C., low concentrations of fMLF) was “able to attenuate monocyte chemotaxis to low concentrations of fMLF” and the “time to activation of Akt” value (Akt) was 1 to 5 min.
